Test results published in US20070003671A1, “Two-part calcium fortified compositions and methods of making the same” (priority 2005, published 2007).
Each block holds one compound with its values, some of them ahead of it.

Tests used:
Format in all cases: physicochemical
[1] = Calcium salts, physical/chemical attributes in orange juice, 450 mg/100 mL calcium load; conditions: for Brix/Acid Ratio: unfortified juice 18.3
From the text: (§1) The flavor of orange juice, for example, can be characterized by a unique balance of sweetness resulting from the sugar content and tartness resulting from the acid content. A challenge of fortifying orange juice with nutritionally significant amounts of calcium is maintaining the sweet to tart balance. This balance can be expressed analytically as the Brix to acid ratio, as described above. The Brix component of the ratio is the measure of soluble solids in the composition often determined by a refractometer. The acid component can be determined by titration with a base such as sodium hydroxide. The Brix to acid ratio is an analytical representation or measure of the sweet to tart taste balance.
A variety of calcium salts, i.e., calcium components, were evaluated to determine their effects on the Brix-acid ratio. In this evaluation, orange juices fortified with different calcium salts were prepared at 450 mg/100 mL of calcium load.

[2] = Calcium salts, physical/chemical attributes in orange juice, 350 mg/100 mL calcium load; conditions: for Brix/Acid Ratio: unfortified juice 18.3
From the text: as §1
A variety of calcium salts, i.e., calcium components, were again evaluated to determine their effects on the Brix-acid ratio but this time at 350 mg/100 mL calcium load.

[3] = pH of a 20% slurry in water
From the text: Titratable acidity and pH can be used as measures of sour perception in, e.g., beverage applications. It is well known that acidity provides a flavor lift or increased perception of flavor in a beverage.

- Brix (48 Hours) [1]: 13.81
- Calcium - Juice (48 Hours) [1]: 207 mg/100 mL
- Titratable Acidity (%) (48 Hours) [1]: 0.627%
- pH (48 Hours) [1]: 4.47
- Brix/Acid Ratio [1]: 22.0
- Brix (48 hrs) [2]: 13.41
- Calcium in Juice (48 hrs) [2]: 161 mg/100 mL
- Titratable Acidity (%) (48 hrs) [2]: 0.621%
- pH (48 hrs) [2]: 4.42
- Brix/Acid Ratio [2]: 21.6
Compound: N[C@@H](CCC(=O)[O-])C(=O)[O-].O.O.O.O.[Ca+2] [calcium L-glutamate tetrahydrate]

Compound: O.O.O=C([O-])[C@H](O)[C@@H](O)C(=O)[O-].[Ca+2] [calcium L-tartrate dihydrate]
- Brix (48 Hours) [1]: 12.02
- Calcium - Juice (48 Hours) [1]: 140 mg/100 mL
- Titratable Acidity (%) (48 Hours) [1]: 0.545%
- pH (48 Hours) [1]: 4.23
- Brix/Acid Ratio [1]: 22.1
- Brix (48 hrs) [2]: 11.99
- Calcium in Juice (48 hrs) [2]: 113 mg/100 mL
- Titratable Acidity (%) (48 hrs) [2]: 0.574%
- pH (48 hrs) [2]: 4.17
- Brix/Acid Ratio [2]: 20.9

Compound: O=C([O-])[O-].[Ca+2] [calcium carbonate]
- Brix (48 Hours) [1]: 12.44
- Calcium - Juice (48 Hours) [1]: 200 mg/100 mL
- Titratable Acidity (%) (48 Hours) [1]: 0.099%
- pH (48 Hours) [1]: 5.88
- Brix/Acid Ratio [1]: 125.7
- Brix (48 hrs) [2]: 12.35
- Calcium in Juice (48 hrs) [2]: 158 mg/100 mL
- Titratable Acidity (%) (48 hrs) [2]: 0.188%
- pH (48 hrs) [2]: 5.15
- Brix/Acid Ratio [2]: 65.7

Compound: O.O.[Ca+2].[Cl-].[Cl-] [calcium chloride dihydrate]
- Brix (48 Hours) [1]: 12.70
- Calcium - Juice (48 Hours) [1]: 206 mg/100 mL
- Titratable Acidity (%) (48 Hours) [1]: 0.620%
- pH (48 Hours) [1]: 3.84
- Brix/Acid Ratio [1]: 20.5
- Brix (48 hrs) [2]: 12.54
- Calcium in Juice (48 hrs) [2]: 163 mg/100 mL
- Titratable Acidity (%) (48 hrs) [2]: 0.618%
- pH (48 hrs) [2]: 3.88
- Brix/Acid Ratio [2]: 20.3

Compound: O=C[O-].O=C[O-].[Ca+2] [calcium formate]
- Brix (48 Hours) [1]: 12.59
- Calcium - Juice (48 Hours) [1]: 206 mg/100 mL
- Titratable Acidity (%) (48 Hours) [1]: 0.620%
- pH (48 Hours) [1]: 4.20
- Brix/Acid Ratio [1]: 20.3
- Brix (48 hrs) [2]: 12.45
- Calcium in Juice (48 hrs) [2]: 160 mg/100 mL
- Titratable Acidity (%) (48 hrs) [2]: 0.620%
- pH (48 hrs) [2]: 4.18
- Brix/Acid Ratio [2]: 20.1

Compound: O.O.O.O=C([O-])/C=C/C(=O)[O-].[Ca+2] [calcium fumarate trihydrate]
- Brix (48 Hours) [1]: 12.96
- Calcium - Juice (48 Hours) [1]: 202 mg/100 mL
- Titratable Acidity (%) (48 Hours) [1]: 0.659%
- pH (48 Hours) [1]: 4.01
- Brix/Acid Ratio [1]: 19.7
- Brix (48 hrs) [2]: 13.56
- Calcium in Juice (48 hrs) [2]: 158 mg/100 mL
- Titratable Acidity (%) (48 hrs) [2]: 0.643%
- pH (48 hrs) [2]: 3.99
- Brix/Acid Ratio [2]: 21.1

- Brix (48 Hours) [1]: 12.73
- Calcium - Juice (48 Hours) [1]: 187 mg/100 mL
- Titratable Acidity (%) (48 Hours) [1]: 0.598%
- pH (48 Hours) [1]: 4.50
- Brix/Acid Ratio [1]: 21.3
- Brix (48 hrs) [2]: 12.54
- Calcium in Juice (48 hrs) [2]: 145 mg/100 mL
- Titratable Acidity (%) (48 hrs) [2]: 0.602%
- pH (48 hrs) [2]: 4.42
- Brix/Acid Ratio [2]: 20.8
Compound: O.O=P([O-])([O-])OCC(O)CO.[Ca+2] (stereo not drawn) [calcium glycerophosphate monohydrate]

Compound: CC(O)C(=O)[O-].CC(O)C(=O)[O-].O.O.O.O.O.[Ca+2] (stereo not drawn) [calcium lactate pentahydrate]
- Brix (48 Hours) [1]: 13.01
- Calcium - Juice (48 Hours) [1]: 204 mg/100 mL
- Titratable Acidity (%) (48 Hours) [1]: 0.657%
- pH (48 Hours) [1]: 4.03
- Brix/Acid Ratio [1]: 19.8
- Brix (48 hrs) [2]: 12.80
- Calcium in Juice (48 hrs) [2]: 157 mg/100 mL
- Titratable Acidity (%) (48 hrs) [2]: 0.670%
- pH (48 hrs) [2]: 4.01
- Brix/Acid Ratio [2]: 19.1

Compound: O=C([O-])CC(O)C(=O)[O-].[Ca+2] (stereo not drawn) [calcium malate]
- Brix (48 Hours) [1]: 12.80
- Calcium - Juice (48 Hours) [1]: 213 mg/100 mL
- Titratable Acidity (%) (48 Hours) [1]: 0.641%
- pH (48 Hours) [1]: 4.17
- Brix/Acid Ratio [1]: 20.0
- Brix (48 hrs) [2]: 12.54
- Calcium in Juice (48 hrs) [2]: 166 mg/100 mL
- Titratable Acidity (%) (48 hrs) [2]: 0.635%
- pH (48 hrs) [2]: 4.15
- Brix/Acid Ratio [2]: 19.7

Compound: O.O=C([O-])CCC(=O)[O-].[Ca+2] [calcium succinate monohydrate]
- Brix (48 Hours) [1]: 12.85
- Calcium - Juice (48 Hours) [1]: 206 mg/100 mL
- Titratable Acidity (%) (48 Hours) [1]: 0.607%
- pH (48 Hours) [1]: 4.66
- Brix/Acid Ratio [1]: 21.2
- Brix (48 hrs) [2]: 12.64
- Calcium in Juice (48 hrs) [2]: 161 mg/100 mL
- Titratable Acidity (%) (48 hrs) [2]: 0.606%
- pH (48 hrs) [2]: 4.56
- Brix/Acid Ratio [2]: 20.9

Compound: O=P([O-])([O-])O.[Ca+2] [dicalcium phosphate anhydrous]
- Brix (48 Hours) [1]: 12.04
- Calcium - Juice (48 Hours) [1]: 203 mg/100 mL
- Titratable Acidity (%) (48 Hours) [1]: 0.674%
- pH (48 Hours) [1]: 4.04
- Brix/Acid Ratio [1]: 17.8
- pH of slurry [3]: approximately 5.0
- Brix (48 hrs) [2]: 11.97
- Calcium in Juice (48 hrs) [2]: 156 mg/100 mL
- Titratable Acidity (%) (48 hrs) [2]: 0.677%
- pH (48 hrs) [2]: 4.04
- Brix/Acid Ratio [2]: 17.6

Compound: O.O.O=P([O-])([O-])O.[Ca+2] [dicalcium phosphate dihydrate]
- Brix (48 Hours) [1]: 12.26
- Calcium - Juice (48 Hours) [1]: 181 mg/100 mL
- Titratable Acidity (%) (48 Hours) [1]: 0.682%
- pH (48 Hours) [1]: 4.21
- Brix/Acid Ratio [1]: 18.0
- pH of slurry [3]: 7.4
- Brix (48 hrs) [2]: 12.33
- Calcium in Juice (48 hrs) [2]: 141 mg/100 mL
- Titratable Acidity (%) (48 hrs) [2]: 0.667%
- pH (48 hrs) [2]: 4.17
- Brix/Acid Ratio [2]: 18.5

Compound: O.O=P([O-])(O)O.O=P([O-])(O)O.[Ca+2] [monocalcium phosphate monohydrate]
- Brix (48 Hours) [1]: 12.92
- Calcium - Juice (48 Hours) [1]: 207 mg/100 mL
- Titratable Acidity (%) (48 Hours) [1]: 1.238%
- pH (48 Hours) [1]: 3.69
- Brix/Acid Ratio [1]: 10.4
- Brix (48 hrs) [2]: 12.53
- Calcium in Juice (48 hrs) [2]: 164 mg/100 mL
- Titratable Acidity (%) (48 hrs) [2]: 1.083%
- pH (48 hrs) [2]: 3.76
- Brix/Acid Ratio [2]: 11.6

Compound: O=C([O-])CC(O)(CC(=O)[O-])C(=O)[O-].O=C([O-])CC(O)(CC(=O)[O-])C(=O)[O-].[Ca+2].[Ca+2].[Ca+2] [tri-calcium citrate]
- Brix (48 Hours) [1]: 12.08
- Calcium - Juice (48 Hours) [1]: 177 mg/100 mL
- Titratable Acidity (%) (48 Hours) [1]: 0.630%
- pH (48 Hours) [1]: 4.07
- Brix/Acid Ratio [1]: 19.2
- Brix (48 hrs) [2]: 12.37
- Calcium in Juice (48 hrs) [2]: 140 mg/100 mL
- Titratable Acidity (%) (48 hrs) [2]: 0.640%
- pH (48 hrs) [2]: 4.06
- Brix/Acid Ratio [2]: 19.3

Compound: O=P([O-])([O-])[O-].O=P([O-])([O-])[O-].[Ca+2].[Ca+2].[Ca+2] [tricalcium phosphate (fine), tricalcium phosphate]
- Brix (48 Hours) [1]: 12.30
- Calcium - Juice (48 Hours) [1]: 197 mg/100 mL
- Titratable Acidity (%) (48 Hours) [1]: 0.484%
- pH (48 Hours) [1]: 4.51
- Brix/Acid Ratio [1]: 25.4
- Brix (48 hrs) [2]: 12.27
- Calcium in Juice (48 hrs) [2]: 157 mg/100 mL
- Titratable Acidity (%) (48 hrs) [2]: 0.490%
- pH (48 hrs) [2]: 4.49
- Brix/Acid Ratio [2]: 25.0

Compound: O=P([O-])([O-])[O-].O=P([O-])([O-])[O-].[Ca+2].[Ca+2].[Ca+2] [tricalcium phosphate]
- Brix (48 Hours) [1]: 12.40
- Calcium - Juice (48 Hours) [1]: 182 mg/100 mL
- Titratable Acidity (%) (48 Hours) [1]: 0.561%
- pH (48 Hours) [1]: 4.37
- Brix/Acid Ratio [1]: 22.1
- Brix (48 hrs) [2]: 12.39
- Calcium in Juice (48 hrs) [2]: 147 mg/100 mL
- Titratable Acidity (%) (48 hrs) [2]: 0.530%
- pH (48 hrs) [2]: 4.34
- Brix/Acid Ratio [2]: 23.4

Compound: calcium ascorbate dihydrate
- Brix (48 Hours) [1]: 13.99
- Calcium - Juice (48 Hours) [1]: 195 mg/100 mL
- Titratable Acidity (%) (48 Hours) [1]: 0.648%
- pH (48 Hours) [1]: 4.23
- Brix/Acid Ratio [1]: 21.6
- Brix (48 hrs) [2]: 13.41
- Calcium in Juice (48 hrs) [2]: 160 mg/100 mL
- Titratable Acidity (%) (48 hrs) [2]: 0.618%
- pH (48 hrs) [2]: 4.16
- Brix/Acid Ratio [2]: 21.7

- Brix (48 Hours) [1]: 13.42
- Calcium - Juice (48 Hours) [1]: 187 mg/100 mL
- Titratable Acidity (%) (48 Hours) [1]: 0.610%
- pH (48 Hours) [1]: 4.28
- Brix/Acid Ratio [1]: 22.0
- Brix (48 hrs) [2]: 13.11
- Calcium in Juice (48 hrs) [2]: 159 mg/100 mL
- Titratable Acidity (%) (48 hrs) [2]: 0.617%
- pH (48 hrs) [2]: 4.24
- Brix/Acid Ratio [2]: 21.2
Compound: calcium aspartate

Compound: calcium gluconate monohydrate
- Brix (48 Hours) [1]: 13.91
- Calcium - Juice (48 Hours) [1]: 198 mg/100 mL
- Titratable Acidity (%) (48 Hours) [1]: 0.653%
- pH (48 Hours) [1]: 4.00
- Brix/Acid Ratio [1]: 21.3
- Brix (48 hrs) [2]: 13.56
- Calcium in Juice (48 hrs) [2]: 154 mg/100 mL
- Titratable Acidity (%) (48 hrs) [2]: 0.640%
- pH (48 hrs) [2]: 3.99
- Brix/Acid Ratio [2]: 21.2
